{"source": "patent US7629318B2", "about": "“Immunosuppressant compounds, methods and uses related thereto” (priority 2002, dated 2009)", "key": {"[1]": {"tested_on": "T-cell proliferation, DR14-LN", "conditions": "for Immunsupressive assays DR14-LN (Max) % Inhibition: maximal inhibition; for IC50: read-out: Immunsupressive assays DR14-LN (IC50)"}, "[2]": {"test": "Stability of compounds in mouse blood plasma", "format": "in vitro ADME", "summary_of_the_method": "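Compounds at 5 μM final in rat, mouse or human plasma, incubated at 37 °C and sampled at 0, 6 and 24 h. Proteins precipitated with acetonitrile and the supernatant dried and reconstituted in 50% acetonitrile/0.1% TFA. PBS controls run for unstable compounds.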"}, "[3]": {"biological_target": "Cathepsin D (EC 3.4.23.5 from bovine spleen) (Bos taurus, UniProt P80209)"}, "[4]": {"tested_on": "T-cell proliferation, lymph node cells of chimeric 0401-IE transgenic mice", "conditions": "for Immunsupressive assays DR4-LN (Max) % Inhibition: maximal inhibition; for IC50: read-out: Immunsupressive assays DR4-LN (IC50); for Immunsupressive assays DR4-LN (Max) % Inhibition / IC50: DR4-LN; for immunosuppressive properties as measured by a T-cell activation assay: dose-response curves", "summary_of_the_method": "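Antigen-primed lymph node cells (1.5×10^5/well) from mice lacking murine class II and carrying a chimeric human RA-associated class II transgene, cultured 3 days with ovalbumin at half-maximal dose plus compound (~0.1–200 uM) in serum-free HL-1. Proliferation read by 3H-thymidine incorporation over the final 16 h.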"}, "[5]": {"biological_target": "DR1 (DRA1*0101 DRB1*0101) (Homo sapiens, UniProt P01903+P01911, A100R/D57E/F55L/F60I/F76Y/I96L/L162R/M171V/P40L/Q125E/R42F/V115G/Y59C)", "test": "Competitive binding to MHC-II protein DR1", "conditions": "Protein binding IC50 (nM) 0101, 0101", "summary_of_the_method": "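Each MHC-II allele incubated with compound 16 hours at room temperature in duplicate; controls lacked compound, or both compound and MHC-II. Complexes captured 2 h at 4 °C, bound biotinylated peptide detected via europium-streptavidin and DELFIA enhancement, time-resolved fluorescence read at ex 340/em 613 (615) nm.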"}}, "note": "“And” between values parts separate entries of the source, which are not always exact repeats. Equal values may be shown once. Numbered stars: 1 amine (or outer) side, 2 acyl side, 3 side chain; on linkers, the order of the positions; unused ones are H or OH. Square brackets hold non-standard residues; d marks the D form. Peptide text beside a SMILES is read from it. * marks the point of attachment. ξ: configuration not given here. Gly(1-amidinopiperidin-4-yl) = N=C(N)N1CCC([C@H](N)C(=O)O)CC1; X1 = CC(C)c1oc([C@H](CO)N[*:1])nc1C(=O)[*:2]; Pro(3R-Ph) = O=C(O)[C@H]1NCC[C@@H]1c1ccccc1; Tic = O=C(O)[C@@H]1Cc2ccccc2CN1; Cha = N[C@@H](CC1CCCCC1)C(=O)O; NHPhenethyl = c1ccc(CCN*)cc1; NMe(benzyl) = CN(Cc1ccccc1)*; ξDisc = O=C(O)C1NCc2ccccc21; Nle = CCCC[C@H](N)C(=O)O; X2 = OCCOCCN(Cc1ccccc1)*; NHBn = c1ccc(CN*)cc1"}
{"molecule": "CSCC[C@H](NC(=O)[C@@H]1Cc2ccccc2CN1C(=O)[C@@H](NC(=O)[C@H](CC1CCCCC1)NC(C)=O)C1CCN(C(=N)N)CC1)C(=O)N1CC[C@H](c2ccccc2)[C@H]1C(=O)N[C@@H](CO)c1nc(C(=O)N(C)C)c(C(C)C)o1", "note": "[Compound P60, Ac-Cha-Gpg-Tic-Met-βPhPro-[S(oxaz)L]-NMe2] (Ac-[Cha][Gly(1-amidinopiperidin-4-yl)][Tic]M[Pro(3R-Ph)][X1]-NMe2)", "values": [{"measurement": "Immunsupressive assays DR14-LN (Max) % Inhibition", "setting": "[1]", "result": 98, "unit": "%"}, {"measurement": "IC50", "setting": "[1]", "result": 41, "unit": "µM"}, {"measurement": "Stability (Arbitrary units) Mouse 6 h", "setting": "[2]", "result": 111, "unit": "Arbitrary units"}, {"measurement": "Stability (Arbitrary units) Mouse 24 h", "setting": "[2]", "result": 95, "unit": "Arbitrary units"}, {"measurement": "Stability (Arbitrary units) Cath D 4 h", "setting": "[3]", "result": 108, "unit": "Arbitrary units"}, {"measurement": "Immunsupressive assays DR4-LN (Max) % Inhibition", "setting": "[4]", "result": 97, "unit": "%"}, {"measurement": "IC50", "setting": "[4]", "result": 29, "unit": "µM"}, {"measurement": "IC50", "setting": "[5]", "result": 250, "unit": "nM"}]}
{"molecule": "CCCC[C@H](NC(=O)[C@@H]1Cc2ccccc2CN1C(=O)[C@@H](NC(=O)[C@H](CC1CCCCC1)NC(C)=O)C1CCN(C(=N)N)CC1)C(=O)NCc1ccccc1", "note": "[Compound P68, Ac-Cha-Gpg-Tic-Nle-N(H)Bn] (Ac-[Cha][Gly(1-amidinopiperidin-4-yl)][Tic][Nle]-NHBn)", "values": [{"measurement": "Immunsupressive assays DR14-LN (Max) % Inhibition", "setting": "[1]", "result": 105, "unit": "%"}, {"measurement": "IC50", "setting": "[1]", "result": 17, "unit": "µM"}, {"measurement": "Stability (Arbitrary units) Mouse 6 h", "setting": "[2]", "result": 49, "unit": "Arbitrary units"}, {"measurement": "Stability (Arbitrary units) Mouse 24 h", "setting": "[2]", "result": 13, "unit": "Arbitrary units"}, {"measurement": "Stability (Arbitrary units) Cath D 4 h", "setting": "[3]", "result": 105, "unit": "Arbitrary units"}, {"measurement": "Immunsupressive assays DR4-LN (Max) % Inhibition", "setting": "[4]", "result": 102, "unit": "%"}, {"measurement": "IC50", "setting": "[4]", "result": 18, "unit": "µM"}, {"measurement": "IC50", "setting": "[5]", "result": 600, "unit": "nM"}]}
{"molecule": "CCCC[C@H](NC(=O)[C@@H]1Cc2ccccc2CN1C(=O)[C@@H](NC(=O)[C@H](CC1CCCCC1)NC(C)=O)C1CCN(C(=N)N)CC1)C(=O)NCCc1ccccc1", "note": "[Compound P69, Ac-Cha-Gpg-Tic-Nle-N(H)CH2CH2Ph] (Ac-[Cha][Gly(1-amidinopiperidin-4-yl)][Tic][Nle]-NHPhenethyl)", "values": [{"measurement": "Immunsupressive assays DR14-LN (Max) % Inhibition", "setting": "[1]", "result": 107, "unit": "%"}, {"measurement": "IC50", "setting": "[1]", "result": 23, "unit": "µM"}, {"measurement": "Stability (Arbitrary units) Mouse 6 h", "setting": "[2]", "result": 115, "unit": "Arbitrary units"}, {"measurement": "Stability (Arbitrary units) Mouse 24 h", "setting": "[2]", "result": 85, "unit": "Arbitrary units"}, {"measurement": "Stability (Arbitrary units) Cath D 4 h", "setting": "[3]", "result": 100, "unit": "Arbitrary units"}, {"measurement": "Immunsupressive assays DR4-LN (Max) % Inhibition", "setting": "[4]", "result": 101, "unit": "%"}, {"measurement": "immunosuppressive properties as measured by a T-cell activation assay", "setting": "[4]", "result": "immunosuppressive properties"}, {"measurement": "IC50", "setting": "[4]", "result": 19, "unit": "µM"}, {"measurement": "IC50", "setting": "[5]", "result": 690, "unit": "nM"}]}
{"molecule": "CCCC[C@H](NC(=O)C1c2ccccc2CN1C(=O)[C@H](CCCNC(=N)N)NC(=O)[C@H](CC1CCCCC1)NC(C)=O)C(=O)N(C)Cc1ccccc1", "note": "(stereo partly drawn) [Compound P72-1, Ac-Cha-Arg-Disc-Nle-N(Me)Bn] (Ac-[Cha]R[ξDisc][Nle]-{NMe(benzyl)})", "values": [{"measurement": "Immunsupressive assays DR14-LN (Max) % Inhibition", "setting": "[1]", "result": 95, "unit": "%"}, {"measurement": "IC50", "setting": "[1]", "result": 29, "unit": "µM"}, {"measurement": "Stability (Arbitrary units) Mouse 6 h", "setting": "[2]", "result": 97, "unit": "Arbitrary units"}, {"measurement": "Stability (Arbitrary units) Mouse 24 h", "setting": "[2]", "result": 75, "unit": "Arbitrary units"}, {"measurement": "Stability (Arbitrary units) Cath D 4 h", "setting": "[3]", "result": 101, "unit": "Arbitrary units"}, {"measurement": "Immunsupressive assays DR4-LN (Max) % Inhibition", "setting": "[4]", "result": 103, "unit": "%"}, {"measurement": "IC50", "setting": "[4]", "result": 31, "unit": "µM"}, {"measurement": "IC50", "setting": "[5]", "result": 1200, "unit": "nM"}]}
{"molecule": "CCCC[C@H](NC(=O)[C@@H]1Cc2ccccc2CN1C(=O)[C@@H](NC(=O)[C@H](CC1CCCCC1)NC(C)=O)C1CCN(C(=N)N)CC1)C(=O)N(C)Cc1ccccc1", "note": "[Compound P74, Ac-Cha-Gpg-Tic-Nle-N(Me)Bn] (Ac-[Cha][Gly(1-amidinopiperidin-4-yl)][Tic][Nle]-{NMe(benzyl)})", "values": [{"measurement": "Immunsupressive assays DR14-LN (Max) % Inhibition", "setting": "[1]", "result": 97, "unit": "%"}, {"measurement": "IC50", "setting": "[1]", "result": 14, "unit": "µM"}, {"measurement": "Stability (Arbitrary units) Mouse 24 h", "setting": "[2]", "result": 97, "unit": "Arbitrary units"}, {"measurement": "Stability (Arbitrary units) Cath D 4 h", "setting": "[3]", "result": 104, "unit": "Arbitrary units"}, {"measurement": "Immunsupressive assays DR4-LN (Max) % Inhibition", "setting": "[4]", "result": 102, "unit": "%"}, {"measurement": "immunosuppressive properties as measured by a T-cell activation assay", "setting": "[4]", "result": "immunosuppressive properties"}, {"measurement": "IC50", "setting": "[4]", "result": "16 µM and 18 µM"}, {"measurement": "IC50", "setting": "[5]", "result": 360, "unit": "nM"}]}
{"molecule": "CCCC[C@H](NC(=O)C1c2ccccc2CN1C(=O)[C@@H](NC(=O)[C@H](CC1CCCCC1)NC(C)=O)C1CCN(C(=N)N)CC1)C(=O)N1CC[C@H](c2ccccc2)[C@H]1C(=O)N[C@@H](CO)c1nc(C(=O)N(C)C)c(C(C)C)o1", "note": "(stereo partly drawn) [Compound P81-1] (Ac-[Cha][Gly(1-amidinopiperidin-4-yl)][ξDisc][Nle][Pro(3R-Ph)][X1]-NMe2)", "values": [{"measurement": "IC50", "setting": "[1]", "result": 43, "unit": "µM"}, {"measurement": "Stability (Arbitrary units) Mouse 6 h", "setting": "[2]", "result": 87, "unit": "Arbitrary units"}, {"measurement": "Stability (Arbitrary units) Mouse 24 h", "setting": "[2]", "result": 84, "unit": "Arbitrary units"}, {"measurement": "Stability (Arbitrary units) Cath D 4 h", "setting": "[3]", "result": 106, "unit": "Arbitrary units"}, {"measurement": "IC50", "setting": "[4]", "result": 63, "unit": "µM"}, {"measurement": "IC50", "setting": "[5]", "result": 220, "unit": "nM"}]}
{"molecule": "CCCC[C@H](NC(=O)[C@@H]1Cc2ccccc2CN1C(=O)[C@@H](NC(=O)[C@H](CC1CCCCC1)NC(C)=O)C1CCN(C(=N)N)CC1)C(=O)N(CCOCCO)Cc1ccccc1", "note": "[Compound P101, Ac-Cha-Gpg-Tic-Nle-N(Bn)CH2CH2OCH2CH2OH] (Ac-[Cha][Gly(1-amidinopiperidin-4-yl)][Tic][Nle]-X2)", "values": [{"measurement": "Immunsupressive assays DR14-LN (Max) % Inhibition", "setting": "[1]", "result": 100, "unit": "%"}, {"measurement": "IC50", "setting": "[1]", "result": 46, "unit": "µM"}, {"measurement": "Stability (Arbitrary units) Mouse 6 h", "setting": "[2]", "result": 107, "unit": "Arbitrary units"}, {"measurement": "Stability (Arbitrary units) Mouse 24 h", "setting": "[2]", "result": 94, "unit": "Arbitrary units"}, {"measurement": "Stability (Arbitrary units) Cath D 4 h", "setting": "[3]", "result": 106, "unit": "Arbitrary units"}, {"measurement": "Immunsupressive assays DR4-LN (Max) % Inhibition", "setting": "[4]", "result": 100, "unit": "%"}, {"measurement": "immunosuppressive properties as measured by a T-cell activation assay", "setting": "[4]", "result": "immunosuppressive properties"}, {"measurement": "IC50", "setting": "[4]", "result": "69 µM and 66 µM"}, {"measurement": "IC50", "setting": "[5]", "result": 500, "unit": "nM"}]}
{"molecule": "CSCC[C@H](NC(=O)[C@@H]1Cc2ccccc2CN1C(=O)[C@@H](NC(=O)[C@H](CC1CCCCC1)NC(C)=O)C1CCN(C(=N)N)CC1)C(=O)N(CCOCCO)Cc1ccccc1", "note": "[Compound P102, Ac-Cha-Gpg-Tic-Met-N(Bn)CH2CH2OCH2CH2OH] (Ac-[Cha][Gly(1-amidinopiperidin-4-yl)][Tic]M-X2)", "values": [{"measurement": "Immunsupressive assays DR14-LN (Max) % Inhibition", "setting": "[1]", "result": 100, "unit": "%"}, {"measurement": "IC50", "setting": "[1]", "result": 73, "unit": "µM"}, {"measurement": "Stability (Arbitrary units) Mouse 6 h", "setting": "[2]", "result": 105, "unit": "Arbitrary units"}, {"measurement": "Stability (Arbitrary units) Mouse 24 h", "setting": "[2]", "result": 101, "unit": "Arbitrary units"}, {"measurement": "Stability (Arbitrary units) Cath D 4 h", "setting": "[3]", "result": 120, "unit": "Arbitrary units"}, {"measurement": "Immunsupressive assays DR4-LN (Max) % Inhibition", "setting": "[4]", "result": 60, "unit": "%"}, {"measurement": "IC50", "setting": "[4]", "result": 110, "unit": "µM"}, {"measurement": "IC50", "setting": "[5]", "result": 580, "unit": "nM"}]}
